From article PMC9228535, “Antistaphylococcal Activities and ADME-Related Properties of Chlorinated Arylcarbamoylnaphthalenylcarbamates” (Pharmaceuticals, 2022) come the findings set out here.

The nature of data set [1]: Stability of ethyl carbamate by HPLC (decomposition rate, half-life). Type of data set: physicochemical. Particulars: buffer, read-out: half-life τ0,5 (converted). As to the method: The minimum inhibitory concentrations (MICs) were evaluated by the microtitration broth method according to the CLSI [64, 65] with some modifications. The compounds were dissolved in DMSO (Sigma, St. Louis, MO, USA) to get a concentration […] and diluted in a microtitration plate in an appropriate medium, namely, Cation Adjusted Mueller–Hinton (CaMH, Oxoid, Basingstoke, UK) for staphylococci (S. aureus ATCC 29213, clinical isolates of MRSA 63718, SA 630, and SA 3202) and brain heart infusion (BHI, Oxoid) for E. faecalis ATCC 29212, to reach the final concentration of 256-0.125 µg/mL. The plate was inoculated by the tested microorganisms. The final concentration of bacterial cells was 10^5 for bacteria. Ampicillin (Sigma) was used as reference drugs. A drug-free control and a sterility control were included. The plates were incubated for 24 h at 37 °C for staphylococci and E. faecalis ATCC 29212 (stability evaluation of the carbamates, see Supplementary materials, Table S1). […] The experiments were repeated three times. […]
evaluate of ethyl carbamate stability. A chromatographic column XTerra® Phenyl 3.5 μm, 100 × 4.6 mm (Waters Corp., Milford, MA, USA) was used. The HPLC separation process was monitored by ChemStation for LC 3D systems (Agilent Technologies). Isocratic elution by a mixture of acetonitrile (HPLC grade, 60.0%) and phosphate buffer, pH 2.5 (40%) as a mobile phase was used. The total flow of the column was 1.0 mL/min, injection 20 μL, the time of analysis was 8 min, column temperature 40 °C, and sample temperature 10 °C. The detection wavelength of 254 nm was chosen. The retention time (tR) of carbamate 2 was 4.92 ± 0.05 min and of the pattern anilide 3.12 ± 0.05 min.
Table S1. Ethyl carbamate 2 decomposition rate and half-life values.

Another data set relates to MRSA SA 3202. The experiment in a line: MIC, microtitration broth method. Type of data set: cell-based. The settings on record: Staphylococcus aureus, 24 h.
In a further data set the test system is MRSA SA 630. The experiment in a line: MIC, microtitration broth method. The data set is classed as cell-based. The settings on record: Staphylococcus aureus, 24 h.
For data set [2], the system named is Staphylococcus aureus ATCC 29213. Kind of data set: MIC, microtitration broth method. Particulars: ATCC29213, 24 h. The data set is classed as cell-based.
The next data set deals with MRSA 63718. Kind of data set: MIC, microtitration broth method. The data set is classed as cell-based. The settings on record: Staphylococcus aureus, MRSA, 24 h.
The subject of data set [3] is Enterococcus faecalis ATCC 29212. The experiment in a line: MIC, microtitration broth method. The data set is classed as cell-based.

In brackets after ≈: the same amount, converted by molar mass. Where two headings read alike, the source gives them in different places.

As usually defined, the half-life is the time in which the quantity being followed falls by half. As a reminder, the MIC is the smallest concentration in the dilution series that meets the test's criterion for growth inhibition. Regarding `CCNC(=O)Oc1c(C(=O)Nc2cc(Cl)c(Cl)cc2Cl)ccc2ccccc12` [Compound 2, 2-[N-(2,4,5-Trichlorophenyl)carbamoyl]naphthalen-1-yl ethyl carbamate], the figures for the half-life in data set [1] (pH 6), in data set [1] (pH 7) and in data set [1] (pH 8) were 50.1 days, 23.2 days and 9.12 days, respectively. The minimum inhibitory concentration (MIC) against MRSA SA 3202 was 0.018 µM (≈ 7.88 ng/mL); against MRSA SA 630, 0.018 µM (≈ 7.88 ng/mL); in data set [2], 0.018 µM (≈ 7.88 ng/mL); against MRSA 63718, 0.144 µM (≈ 63 ng/mL); in data set [3] (Enterococcus faecalis, ATCC29212, 24 h), 36.6 µM (≈ 16000 ng/mL). Besides, in data set [3] (E. faecalis ATCC 29212), the “anti-enterococcal activity (in words)” value is listed as “medium activity”.
